In patent publication EP0089901A1, “New 2-oxo-1-pyrrolidineacetic acid esters, their methods of production and therapeutic compositions containing the same” (PRODES S.A., priority 1982, dated 1983):

Experiments:
anesthetized dogs = test: Electromagnetic blood flow measurement (vertebral/cerebral blood flow); assay type: in vivo; conditions: vertebral blood flow
Experimental: After orotraqueal intubation, artificial respiration with normal air was instituted using a Manley Pulmovent respirator. The correct ventilation of the dogs was checked after all the surgical procedures by determining the p02, pC02, and pH in arterial blood samples, as well as several times during the experiment by means of an Astrup apparatus. Blood pressure was measured in left saphenous artery by means of a Bell & Howell pressure transducer, and the heart rate by means of a Beckman ECG device. Recordings were made on an ink-writing Beckman polygraph. Left saphenous vein and right saphenous artery were cannulated with polyethylene catheters for drug administration and blood collection respectively.
Vertebral blood flow was measured by a non-cannulating electro-magnetic flowmeter (Carolina Medical Electronics) placed in the vertebral artery.
The Carolina digital flowmeter was connected to an Omniscribe Houston Instruments plotter.
Piracetam and nicotinic acid were used as control drugs.

animals [1] = test: Unspecific protection against lethality: hypoxia-hypobara (decompression), survival time; assay type: in vivo; conditions: survival time under decompression
Source text: We have chosen the hypoxia-hypobara : the decompression kills the animals, because of the lack of 02.

mouse = test: Unspecific protection against lethality: gasping time after quick decapitation; assay type: in vivo; conditions: gasping time after decapitation of mouse
Source text: The second trial is the quick decapitation of mouse. The head has a typical mandibular movement, known as gasping, as searching the breathing air.

animals [2] = test: Unspecific protection against lethality: anoxia by CNK, survival time; assay type: in vivo; conditions: survival time after CNK
[3] = LD50 of representative compounds; conditions: in vivo
Source text: LD50 of representative compounds included in Table III.

With `CC1CC(OC(=O)CN2CCCC2=O)CC(C)(C)C1` (mixture of isomers) [cis/trans 3,3,5-trimethylcyclohexyl 2-oxo-l-pyrrolidineacetate] the EFFECT (anesthetized dogs; DOSE 1 mg/kg) was “Active”, the “HYPOXIA HYPOBARA” value (animals [1]; DOSE 500mg/kg) was “Active” and the GASPING (mouse; DOSE 500mg/kg) was “Very active”. For the same compound, the “ANOXIA BY CNK” value (animals [2]; DOSE 500mg/kg) was “Very active” and the LD50 [3] was 3170 mg/kg.

With `O=C1NC(=O)C(c2ccccc2)(c2ccccc2)N1` [Difenilhydantoine, reference compound] the “HYPOXIA HYPOBARA” value (animals [1]; DOSE 100mg/kg) was “Active”, the GASPING (mouse; DOSE 100mg/kg) was “Very active” and the “ANOXIA BY CNK” value (animals [2]; DOSE 100mg/kg) was “Active”.

For `O=C(O)c1cccnc1` [Nicotinic acid], the EFFECT (anesthetized dogs; no dose given) was “No effect”.

With `COc1ccc(Cc2nccc3cc(OC)c(OC)cc23)cc1OC` [Papaverine] the EFFECT (anesthetized dogs; DOSE 0.5 mg/kg) was “Active”.

With `NC(=O)CN1CCCC1=O` [Piracetam, 2-oxo-1-pyrrolidineacetamide, reference compound] the EFFECT (anesthetized dogs; no dose given) was “No effect”, the “HYPOXIA HYPOBARA” value (animals [1]; DOSE 1000mg/kg) was “No effect” and the GASPING (mouse; DOSE 1000mg/kg) was “No effect”. The “ANOXIA BY CNK” value (animals [2]; DOSE 1000mg/kg) was “No effect”.

In the case of `CCC(C(=O)OC1CC(C)CC(C)(C)C1)N1CCCC1=O` (stereo not drawn) [cis 3,3,5-trimethylcyclohexyl 2-(2-oxo-l-pyrrolidinyl)butyrate], the EFFECT (anesthetized dogs; DOSE 0.5 mg/kg) is reported as “Active”, the “HYPOXIA HYPOBARA” value (animals [1]; DOSE 500mg/kg) is reported as “Active” and the GASPING (mouse; DOSE 500mg/kg) is reported as “Very active”. The “ANOXIA BY CNK” value (animals [2]; DOSE 500mg/kg) was “Very active” and the LD50 [3] was 2850 mg/kg.
